Data taken from patent US20070060636A1, “High enantiomeric purity dexanabinol for pharmaceutical compositions” (priority 2002, published 2007).

Experiments:
[1] = CREMOPHOR EL:ethanol formulations, dissolution and stability after dilution in saline; type: physicochemical; details: for Stability following dilution in saline, Dilution 1/5 / Stability following dilution in saline, Dilution 1/10 / Stability following dilution in saline, Dilution 1/20: monitored 24 hours
Description: Once it was established that a cosolvent formulation made of CREMOPHOR EL® (polyoxyl 35 castor oil) and ethanol is appropriate to dissolve the drug, a matrix of such formulations was prepared at various concentrations (from 30 to 70% w/w of each ingredient) and with increasing amounts of dexanabinol of high enantiomeric purity (20, 50 and 100 mg/ml). The exact composition of these formulations is described in the left hand side of Table 5. The drug cosolvent concentrates were diluted at various ratios in saline and the stability of the drug in the resulting solutions was monitored for 24 hours.

[2] = 14-day multiple dose pharmacokinetic/toxicity study, rat; type: in vivo, rats; details: for AUC∞ Ratio to Phase I / Cmax Ratio to Phase I / AUC∞ Ratio to Phase II / Cmax Ratio to Phase II: 15 mg/kg Day 14; for AUC∞ Ratio to Phase I / Cmax Ratio to Phase I: vs human 150 mg Phase I; for AUC∞ Ratio to Phase II / Cmax Ratio to Phase II: vs human 150 mg Phase II
Description: The pharmacokinetics of dexanabinol of high enantiomeric purity formulated in CREMOPHOR EL®:ethanol as described in Example 4 were investigated in rats, rabbits, and monkeys following intravenous administration of single doses, and 14 and 28 days of repeated dosing. Human pharmacokinetics was studied during Phase I and Phase II clinical studies. Dexanabinol used in the pharmacokinetic studies was formulated as drug concentrates of 50 and 100 mg/ml and diluted with sterile 0.9% NaCl solution prior to intravenous (i.v.) administration to the desired final doses. Determination of dexanabinol concentrations in plasma and brain extracts was carried out using a validated Gas Chromatography-Mass Spectra (GC-MS) assay following solid phase extraction of the drug and derivatization. The limit of quantitation of the assay is 0.1 ng/ml.
Pharmacokinetic parameters were estimated by a non-compartmental method using WinNonlin Professional version 3.2 (Pharsight Corp., Mountain View, Calif.). The maximum plasma concentration (Cmax), when the drug is administered by infusion, is the concentration at the end of infusion. The Cmax following intravenous bolus administration is the value estimated by the software to be the concentration at t=0. The terminal slope (X) was estimated by linear regression through the last time points and used to calculate the terminal half-life (t1/2) from the following equation: t1/2=0.693/λ The area under the curve from time of dosing through the last time point (AUCz) was calculated by the linear trapezoid method. The AUC extrapolated to infinity (AUC∞) was calculated from the following equation: AUC∞=AUCz+Cz/λ where Cz is the concentration at the last time point predicted by the linear regression. AUC∞ was normalized for dose (mg/kg) and presented as AUC∞/Dose. Mean residence time (MRT), when the drug is administered by infusion is described by the following equation: MRT=(AUMC/AUC)−(TI)/2 Mean residence time after i.v. bolus administration is described by the following equation: MRT=(AUMC/AUC) where AUMC is the area under the first moment curve and TI is the length of infusion. Plasma clearance (CL), and the apparent volume of distribution at steady state (Vss) were calculated from the following equations: CL=Dose/AUC∞ Vss=MRT×CL
In 14-day multiple dose pharmacokinetic studies, the NOAEL was 15 mg/kg/day in rats and 25 mg/kg/day in rabbits. In a 28-day study in monkeys the NOAEL was 25 mg/kg/day. Cmax and AUC observed following the last dose at the NOAEL in the multiple dose toxicity studies and the ratios of these values to those observed in the Phase I and II studies for the 150 mg dose are shown in Table 7.

[3] = 20 mg/ml in 30% CREMOPHOR EL/70% ethanol
[4] = 20 mg/ml in 50% CREMOPHOR EL/50% ethanol
[5] = 20 mg/ml in 70% CREMOPHOR EL/30% ethanol
[6] = 50 mg/ml in 30% CREMOPHOR EL/70% ethanol
[7] = 50 mg/ml in 50% CREMOPHOR EL/50% ethanol
[8] = 50 mg/ml in 70% CREMOPHOR EL/30% ethanol
[9] = 100 mg/ml in 30% CREMOPHOR EL/70% ethanol
[10] = 100 mg/ml in 50% CREMOPHOR EL/50% ethanol
[11] = 100 mg/ml in 70% CREMOPHOR EL/30% ethanol
[12] = plasma, iv, rat female, 15 mg/kg i.v. daily, final dose Day 14 (NOAEL)
[13] = plasma, iv, rat male, 15 mg/kg i.v. daily, final dose Day 14 (NOAEL)

Structure (SMILES): CCCCCCC(C)(C)c1cc(O)c2c(c1)OC(C)(C)[C@H]1CC=C(CO)C[C@H]21 [dexanabinol, 1,1-dimethylheptyl-(3S,4S)-7-hydroxy-Δ^6-tetrahydrocannabinol]
- amount of dexanabinol dissolved by CREMOPHOR EL:ethanol cosolvent formulations [1]: at least 100 mg/ml
- Stability following dilution in saline, Dilution 1/5 [1, 3]: Stable
- Stability following dilution in saline, Dilution 1/10 [1, 3]: Stable
- Stability following dilution in saline, Dilution 1/20 [1, 3]: Stable
- Stability following dilution in saline, Dilution 1/5 [1, 4]: Stable
- Stability following dilution in saline, Dilution 1/10 [1, 4]: Stable
- Stability following dilution in saline, Dilution 1/20 [1, 4]: Stable
- Stability following dilution in saline, Dilution 1/5 [1, 5]: Stable
- Stability following dilution in saline, Dilution 1/10 [1, 5]: Stable
- Stability following dilution in saline, Dilution 1/20 [1, 5]: Stable
- Stability following dilution in saline, Dilution 1/5: crystals appeared at [1, 6]: appeared at 2 hours
- Stability following dilution in saline, Dilution 1/10: crystals appeared at [1, 6]: 2 h
- Stability following dilution in saline, Dilution 1/20: crystals appeared at [1, 6]: 2.5 h
- Stability following dilution in saline, Dilution 1/5: stable at least [1, 7]: least 7 hours
- Stability following dilution in saline, Dilution 1/10: stable at least [1, 7]: least 4 hours
- Stability following dilution in saline, Dilution 1/20: stable at least [1, 7]: ≥ 7 h
- Stability following dilution in saline, Dilution 1/5: stable at least [1, 8]: least 7 hours
- Stability following dilution in saline, Dilution 1/10: stable at least [1, 8]: least 7 hours
- Stability following dilution in saline, Dilution 1/20: stable at least [1, 8]: ≥ 7 h
- stability after dilution with saline ([1]; 50 mg/ml in 70:30 CREMOPHOR EL:ethanol, all ratios from 1:5 to 1:20): stable
- Stability following dilution in saline, Dilution 1/5: crystals appeared at [1, 9]: 45 min
- Stability following dilution in saline, Dilution 1/10: crystals appeared at [1, 9]: 0.917 h
- Stability following dilution in saline, Dilution 1/20: crystals appeared at [1, 9]: 1.5 h
- Stability following dilution in saline, Dilution 1/5: crystals appeared at [1, 10]: 90 min
- Stability following dilution in saline, Dilution 1/10: crystals appeared at [1, 10]: 1.5 h
- Stability following dilution in saline, Dilution 1/20: crystals appeared at [1, 10]: 1.5 h
- Stability following dilution in saline, Dilution 1/5: crystals appeared at [1, 11]: appeared at 2 hours
- Stability following dilution in saline, Dilution 1/10: crystals appeared at [1, 11]: 2 h
- Stability following dilution in saline, Dilution 1/20: crystals appeared at [1, 11]: 3.5 h
- AUC(0-inf) [2, 12]: 58600 ng·h/mL
- Cmax at 14 days [2, 12]: 17400 ng/mL
- AUC(0-inf) [2, 13]: 32700 ng·h/mL
- Cmax [2, 13]: 30200 ng/mL
- AUC∞ Ratio to Phase I ([2]; rat female): 18.3
- Cmax Ratio to Phase I ([2]; rat female): 3.5
- AUC∞ Ratio to Phase II ([2]; rat female): 39.5
- Cmax Ratio to Phase II ([2]; rat female): 8.8
- AUC∞ Ratio to Phase I ([2]; rat male): 10.2
- Cmax Ratio to Phase I ([2]; rat male): 6.0
- AUC∞ Ratio to Phase II ([2]; rat male): 22.1
- Cmax Ratio to Phase II ([2]; rat male): 15.4
- NOAEL at 14 days ([2]; rat, in vivo, iv, 14-day multiple dose i.v.): 15 mg/kg/day
